Data: publication PMC4008314 (Clinical cancer research : an official journal of the …, 2012)
Like-named read-outs stand apart in the source and are kept apart here.

Legend:
[1] = cited from earlier work
[2] = cited from earlier work; remark: listed apart in the source
refractory leukemias = conditions: cited from earlier work
RCCs = conditions: adults with RCCs; cited from earlier work
[3] = in vivo
[4] = system: circulating endothelial cells (CEC); assay: Circulating endothelial cells by fluorescence-activated cell sorter; format: in vivo, children; conditions: paired samples (n = 21), baseline vs end of cycle 1
[5] = system: circulating endothelial progenitor cells (CEPC); assay: Circulating endothelial progenitor cells by fluorescence-activated cell sorter; format: in vivo, children; conditions: paired samples (n = 21), baseline vs end of cycle 1
[6] = cited from earlier work; remark: listed apart in the source
advanced HCCs = conditions: adults with advanced HCCs; cited from earlier work
multiple tumor types = conditions: cited from earlier work
clinical = conditions: human, in vivo
[7] = in vivo; remark: listed apart in the source
endoglin = conditions: paired samples (n = 26), baseline vs end of cycle 1
plasma VEGF = conditions: paired samples (n = 26), baseline vs end of cycle 1
refractory solid tumors = assay: Response evaluation, solid tumors; format: in vivo, children
[8] = human, in vivo
[9] = system: refractory leukemias (AML and FLT3ITD); assay: Response evaluation, leukemias; format: in vivo, children; conditions: 2 patients with AML and FLT3ITD
[10] = system: placental growth factor (PlGF); assay: Plasma PlGF by ELISA, baseline vs steady state; format: in vivo, children; conditions: at steady state vs baseline, P ≤ 0.001

O=P1(N(CCCl)CCCl)NCCCO1 (centres unmarked) [cyclophosphamide]
recommended phase II dose ([1]; once daily, with sorafenib and bevacizumab): 50 mg/m^2

CNC(=O)c1cc(Oc2ccc(NC(=O)Nc3ccc(Cl)c(C(F)(F)F)c3)cc2)ccn1 [Sorafenib]
in vitro activity [2]: low micromolar concentrations
sorafenib steady-state (day 7) concentration (refractory leukemias; 150 mg/m^2, children with refractory leukemia): 7.0 ± 1.8 µg/mL
sorafenib steady-state (day 7) concentration (refractory leukemias; 200 mg/m^2, children with refractory leukemia): 6.5 ± 3.6 µg/mL
patients with complete remission (refractory leukemias; after combination therapy): 6
patients with decreased blast percentages (refractory leukemias; by day 8): 10 of 12
conversion of sorafenib to the active N-oxide metabolite (refractory leukemias; children vs that reported in adult patients): much higher rate of conversion
incidence of grade 2 and 3 hand foot skin reactions and rashes (refractory leukemias; children with leukemia, sorafenib in combination): 8 of 12
objective response (RCCs): 10%
Anorexia grade 2 (non-DLT) ([3]; human): 1
Headache grade 2 (non-DLT) ([3]; human): 1
Hyperglycemia grade 1 (non-DLT) ([3]; human): 1
Hypocalcemia grade 2 (non-DLT) ([3]; human): 1
Hypokalemia grade 3 (non-DLT) ([3]; human): 1
Hypomagnesemia grade 1 (non-DLT) ([3]; human): 2
Hypophosphatemia grade 2 (non-DLT) ([3]; human): 1
Increased AST grade 1 (non-DLT) ([3]; human): 1
Increased bilirubin grade 1 (non-DLT) ([3]; human): 1
Nausea grade 1 (non-DLT) ([3]; human): 1
Rash/Desquamation grade 1 (non-DLT) ([3]; human): 2
Anorexia grade 1 (non-DLT) ([3]; human, 28 days): 1
Anorexia grade 2 (non-DLT) ([3]; human, 28 days): 1
Diarrhea grade 1 (non-DLT) ([3]; human, 28 days): 2
Diarrhea grade 2 (non-DLT) ([3]; human, 28 days): 1
Fatigue grade 2 (non-DLT) ([3]; human, 28 days): 2
Hyperglycemia grade 1 (non-DLT) ([3]; human, 28 days): 2
Increased ALT grade 1 (non-DLT) ([3]; human, 28 days): 1
Increased ALT grade 2 (non-DLT) ([3]; human, 28 days): 1
Increased AST grade 1 (non-DLT) ([3]; human, 28 days): 3
Increased AST grade 2 (non-DLT) ([3]; human, 28 days): 1
Increased bilirubin grade 1 (non-DLT) ([3]; human, 28 days): 2
Nausea grade 1 (non-DLT) ([3]; human, 28 days): 2
recommended phase II dose ([3]; human, 28 days): 150 mg/m^2/dose
Headache grade 1 (non-DLT) ([3]; human, 28 days (course 1)): 1
Headache grade 2 (non-DLT) ([3]; human, 28 days (course 1)): 1
Hyperglycemia grade 2 (non-DLT) ([3]; human, 28 days (course 1)): 1
Hypoalbuminemia grade 1 (non-DLT) ([3]; human, 28 days (course 1)): 1
Hypoalbuminemia grade 2 (non-DLT) ([3]; human, 28 days (course 1)): 1
Hypocalcemia grade 1 (non-DLT) ([3]; human, 28 days (course 1)): 1
Hypocalcemia grade 2 (non-DLT) ([3]; human, 28 days (course 1)): 1
Hypokalemia grade 1 (non-DLT) ([3]; human, 28 days (course 1)): 2
Hypomagnesemia grade 1 (non-DLT) ([3]; human, 28 days (course 1)): 1
Hypomagnesemia grade 3 (non-DLT) ([3]; human, 28 days (course 1)): 1
Hyponatremia grade 1 (non-DLT) ([3]; human, 28 days (course 1)): 2
Hypophosphatemia grade 2 (non-DLT) ([3]; human, 28 days (course 1)): 1
Hypophosphatemia grade 3 (non-DLT) ([3]; human, 28 days (course 1)): 1
Proteinuria grade 1 (non-DLT) ([3]; human, 28 days (course 1)): 1
Proteinuria grade 2 (non-DLT) ([3]; human, 28 days (course 1)): 1
dose-limiting ALT/AST elevation [3]: No dose-limiting ALT/AST elevation
CEC number, change [4]: no change
CEPC number, change [5]: no change
AUC0–12h ([6]; adults, 400-mg dose after multiple doses): 47800 to 76500 ng·h/mL
adults requiring dose reductions with chronic administration ([6]; mostly due to skin toxicity and diarrhea): Up to a third
recommended fixed dose ([6]; twice daily, adults): 400 mg
objective response (advanced HCCs): 2%
in vivo antitumor activity (multiple tumor types): growth inhibition observed in multiple tumor types
half-life (clinical): ≥ 24 h
AUC(0-t) (clinical; 130 mg/m2, AUC0–24h, day 1): 20000 ng·h/mL
Tmax (clinical; 130 mg/m2, Tmax, day 1): 7.9 h
Tmax (clinical; 150 mg/m2, Tmax, steady state): 3 h
AUC(0-t) (clinical; 200 mg/m2, AUC0–24h, day 1): 19000 ng·h/mL
Cmax (clinical; 200 mg/m2, Cmax, day 1): 1000 ng/mL
AUC(0-t) (clinical; 200 mg/m2, median steady-state AUC0–12h): 55700 ng·h/mL
AUC(0-t) (clinical; 250 mg/m2, AUC0–24h, day 1): 27600 ng·h/mL
Tmax (clinical; 250 mg/m2, Tmax, day 1): 8 h
Tmax (clinical; […]2, Tmax, day 1): 5 h
AUC(0-t) (clinical; mean (SD) AUC0–12h steady state): 61200 ng·h/mL
Cmax (clinical; po, 130 mg/m2, Cmax, day 1): 1500 ng/mL
AUC(0-t) (clinical; po, 150 mg/m2, AUC0–12h, steady state): 49700 ng·h/mL
AUC(0-t) (clinical; po, 150 mg/m2, AUC0–24h, day 1): 28300 ng·h/mL
Cmax (clinical; po, 150 mg/m2, Cmax, day 1): 1900 ng/mL
AUC(0-t) (clinical; po, 200 mg/m2, AUC0–12h, steady state): 60200 ng·h/mL
AUC(0-t) (clinical; po, 200 mg/m2, AUC0–24h, day 1): 27300 ng·h/mL
Cmax (clinical; po, 200 mg/m2, Cmax, day 1): 1600 ng/mL
Cmax (clinical; po, 200 mg/m2, Cmax, steady state): 8300 ng/mL
Tmax (clinical; po, 200 mg/m2, Tmax, steady state): 3.4 h
Tmax (clinical; po, […]2, Tmax, day 1): 5 h
Alopecia grade 1 (non-DLT) ([7]; human): 1
Anorexia grade 2 (non-DLT) ([7]; human): 1
Fatigue grade 2 (non-DLT) ([7]; human): 2
Fever grade 1 (non-DLT) ([7]; human): 1
Hand-foot skin reaction grade 2 (non-DLT) ([7]; human): 2
Headache grade 1 (non-DLT) ([7]; human): 1
Headache grade 2 (non-DLT) ([7]; human): 1
Hemoglobin grade 1 (non-DLT) ([7]; human): 4
Hemoglobin grade 2 (non-DLT) ([7]; human): 1
Hemoglobin grade 3 (non-DLT) ([7]; human): 1
Hypertension grade 1 (non-DLT) ([7]; human): 3
Hypertension grade 3 (non-DLT) ([7]; human): 1
Hypoalbuminemia grade 1 (non-DLT) ([7]; human): 1
Hypocalcemia grade 1 (non-DLT) ([7]; human): 3
Hypophosphatemia grade 2 (non-DLT) ([7]; human): 1
Increased ALT grade 2 (non-DLT) ([7]; human): 1
Increased AST grade 2 (non-DLT) ([7]; human): 1
Increased bilirubin grade 1 (non-DLT) ([7]; human): 1
Increased bilirubin grade 2 (non-DLT) ([7]; human): 1
Leukopenia grade 1 (non-DLT) ([7]; human): 4
Leukopenia grade 2 (non-DLT) ([7]; human): 2
Leukopenia grade 3 (non-DLT) ([7]; human): 2
Lymphopenia grade 1 (non-DLT) ([7]; human): 2
Lymphopenia grade 2 (non-DLT) ([7]; human): 2
Lymphopenia grade 3 (non-DLT) ([7]; human): 1
Nausea grade 3 (non-DLT) ([7]; human): 1
Neutropenia grade 1 (non-DLT) ([7]; human): 3
Neutropenia grade 2 (non-DLT) ([7]; human): 1
Neutropenia grade 3 (non-DLT) ([7]; human): 2
Pain, Other (jaw) grade 1 (non-DLT) ([7]; human): 1
Thrombocytopenia grade 2 (non-DLT) ([7]; human): 1
Vomiting grade 1 (non-DLT) ([7]; human): 1
Vomiting grade 3 (non-DLT) ([7]; human): 1
patients who developed a DLT after cycle 1 ([7]; human): 5
Alopecia grade 1 (non-DLT) ([7]; human, 28 day): 2
Anorexia grade 1 (non-DLT) ([7]; human, 28 day): 4
Diarrhea grade 2 (non-DLT) ([7]; human, 28 day): 1
Fatigue grade 1 (non-DLT) ([7]; human, 28 day): 4
Fatigue grade 2 (non-DLT) ([7]; human, 28 day): 2
Fever grade 1 (non-DLT) ([7]; human, 28 day): 2
Hand-foot skin reaction grade 1 (non-DLT) ([7]; human, 28 day): 1
Hand-foot skin reaction grade 2 (non-DLT) ([7]; human, 28 day): 1
Headache grade 1 (non-DLT) ([7]; human, 28 day): 3
Headache grade 2 (non-DLT) ([7]; human, 28 day): 1
Hypoalbuminemia grade 1 (non-DLT) ([7]; human, 28 day): 1
Hypoalbuminemia grade 2 (non-DLT) ([7]; human, 28 day): 1
Hypocalcemia grade 1 (non-DLT) ([7]; human, 28 day): 3
Hypophosphatemia grade 2 (non-DLT) ([7]; human, 28 day): 2
Increased ALT grade 2 (non-DLT) ([7]; human, 28 day): 1
Increased AST grade 2 (non-DLT) ([7]; human, 28 day): 1
Increased bilirubin grade 2 (non-DLT) ([7]; human, 28 day): 1
Lymphopenia grade 1 (non-DLT) ([7]; human, 28 day): 1
Lymphopenia grade 3 (non-DLT) ([7]; human, 28 day): 1
Mucositis/stomatitis grade 1 (non-DLT) ([7]; human, 28 day): 2
Nausea grade 2 (non-DLT) ([7]; human, 28 day): 2
Rash/Desquamation grade 1 (non-DLT) ([7]; human, 28 day): 3
Rash/Desquamation grade 2 (non-DLT) ([7]; human, 28 day): 1
Thrombocytopenia grade 1 (non-DLT) ([7]; human, 28 day): 4
Thrombocytopenia grade 2 (non-DLT) ([7]; human, 28 day): 1
Hand-foot skin reaction grade 1 (non-DLT) ([7]; human, 28 days): 1
Hemoglobin grade 1 (non-DLT) ([7]; human, 28 days): 3
Hemoglobin grade 2 (non-DLT) ([7]; human, 28 days): 1
Hemoglobin grade 3 (non-DLT) ([7]; human, 28 days): 2
Hypertension grade 1 (non-DLT) ([7]; human, 28 days): 4
Hypertension grade 2 (non-DLT) ([7]; human, 28 days): 1
Hyponatremia grade 1 (non-DLT) ([7]; human, 28 days): 3
Leukopenia grade 1 (non-DLT) ([7]; human, 28 days): 5
Leukopenia grade 2 (non-DLT) ([7]; human, 28 days): 2
Leukopenia grade 3 (non-DLT) ([7]; human, 28 days): 2
Pain, Other (forearm) grade 1 (non-DLT) ([7]; human, 28 days): 1
Rash/Desquamation grade 2 (non-DLT) ([7]; human, 28 days): 3
recommended phase II dose ([7]; human, 28 days): 200 mg/m^2/dose
Lymphopenia grade 1 (non-DLT) ([7]; human, 28 days (course 1)): 2
Lymphopenia grade 2 (non-DLT) ([7]; human, 28 days (course 1)): 1
Lymphopenia grade 3 (non-DLT) ([7]; human, 28 days (course 1)): 2
Neutropenia grade 1 (non-DLT) ([7]; human, 28 days (course 1)): 5
Neutropenia grade 2 (non-DLT) ([7]; human, 28 days (course 1)): 1
Neutropenia grade 3 (non-DLT) ([7]; human, 28 days (course 1)): 2
Thrombocytopenia grade 1 (non-DLT) ([7]; human, 28 days (course 1)): 4
bony abnormalities on serial plain radiographs [7]: No bony abnormalities
plasma endoglin concentration, change (endoglin): no change
plasma VEGF concentration, change (plasma VEGF): no change
incidence of grade 2 and 3 hand foot skin reactions and rashes ([1]; children with solid tumors, sorafenib in combination): 5 of 19
recommended phase II dose ([1]; twice daily, with bevacizumab and cyclophosphamide): 90 mg/m^2/dose
tumor shrinkage (refractory solid tumors; 1 patient (#24) with synovial sarcoma, after cycle 1, progression after cycle 2): more than 40%
objective responses (refractory solid tumors; patients with solid tumors): no confirmed objective responses
patients with stable disease for 4 or more cycles (refractory solid tumors; solid tumor patients): 14
Tmax, steady state [8]: 0.8 h
bone marrow blasts [9]: less than 5%
PlGF, change [10]: increase
